Reference: patent US20220089631A1, “COMPOUND COMPRISING MULTIVALENT SIALYLOLIGO[…], AND COMPOSITION FOR PREVENTING OR TREATING VIRAL INFECTION DISEASES, CONTAINING SAME AS ACTIVE INGREDIENT” (priority 2018, published 2022)

Key:
Format in all cases: cell-based, influenza virus
[1] = system: Influenza Type A H3N2 (swine)
[2] = system: Influenza Type B
[3] = system: Influenza Type A H9N2 (avian)
[4] = system: Influenza Type A H1N1 (PR8)

SMILES	Hemagglutination inhibition concentration [1] [mM]	Hemagglutination inhibition concentration [2] [mM]	Hemagglutination inhibition concentration [3] [mM]	Hemagglutination inhibition concentration [4] [mM]
CC(=O)NC1C(O)CC(OCC2CC(O)C(O)C(OC3C(CO)OC(OCCCCCCNC(=O)CCC(=O)OC4OC(COC(=O)CCC(=O)NCCCCCCOC5OC(O)C(OC6OC(COC7(C(=O)O)CC(O)C(NC(C)=O)C([C@@H](O)[C@H](O)CO)O7)CC(O)C6O)C(O)C5O)C(OC(=O)CCC(=O)NCCCCCCOC5OC(CO)C(OC6OC(COC7(C(=O)O)CC(O)C(NC(C)=O)C(C(O)[C@H](O)CO)O7)CC(O)C6O)C(O)C5O)C4OC(=O)CCC(=O)NCCCCCCOC4OC(CO)C(OC5OC(COC6(C(=O)O)CC(O)C(NC(C)=O)C([C@@H](O)[C@H](O)CO)O6)C(O)C(O)C5O)C(O)C4O)C(O)C3O)O2)(C(=O)O)OC1C(O)[C@H](O)CO (stereo partly drawn) [Compound 4]	0.85	0.15	2.0	0.45
CC(=O)N[C@H]1[C@H]([C@H](O)[C@H](O)CO)O[C@@](O[C@H]2[C@@H](O)[C@@H](CO)O[C@@H](O[C@H]3[C@H](O)[C@@H](O)C(O)O[C@@H]3CO)[C@@H]2O)(C(=O)O)C[C@@H]1O (stereo partly drawn) [compound 1, 3′-sialyl lactose]	20	10	18	25
CC(=O)N[C@H]1[C@H]([C@H](O)[C@H](O)CO)O[C@@](OC[C@H]2O[C@@H](O[C@H]3[C@H](O)[C@@H](O)[C@H](O)O[C@@H]3CO)[C@H](O)[C@@H](O)[C@H]2O)(C(=O)O)C[C@@H]1O [compound 2, 6′-sialyl lactose]	4.5	4.5	>100	12.5
